The text below walks through data of patent US20050085447A1, “Pyrido[3,4-d]pyrimidine derivatives as matrix metalloproteinase-13 inhibitors” (Warner-Lambert Company LLC, priority 2003, published 2005).

The target in this assay is T1, MMP-17 catalytic domain (Homo sapiens, UniProt Q9ULZ9).
T1 construct: MMP-14 catalytic domain, and MMP-17 catalytic domain
T1 sequence (Q9ULZ9 126-295 limits assumed): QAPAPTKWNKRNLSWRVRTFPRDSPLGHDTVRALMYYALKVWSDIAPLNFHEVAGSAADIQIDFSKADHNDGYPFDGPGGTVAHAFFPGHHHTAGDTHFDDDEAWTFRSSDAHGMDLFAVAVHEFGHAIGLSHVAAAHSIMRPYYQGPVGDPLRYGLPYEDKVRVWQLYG
As to the kind of experiment: Thiopeptolide substrate hydrolysis inhibition assay, MMP-17 catalytic domain. Format: biochemical. The note with it: read-out: MMP-17 CD IC50. The source says:
The assay methods of Biological Examples 1-4 measure the amount by which a test compound reduces the hydrolysis of a thiopeptolide substrate catalyzed by a matrix metalloproteinase enzyme or catalytic domain thereof. It has been shown previously by Ye Qi-Zhuang, Hupe D., and Johnson L. (Current Medicinal Chemistry, 1996;3:407-418) that inhibitor activity against a catalytic domain of an MMP is predictive of the inhibitor activity against the respective full-length MMP enzyme. The methods described below for the inhibition of MMP-13 may also be adapted and used to determine the ability of the compounds of Formula I to inhibit other matrix metalloproteases such as MMP-1, MMP-2, MMP-3, MMP-7, MMP-8, MMP-9, MMP-12, MMP-14, MMP-17, and the like.
Thiopeptolide substrates show virtually no decomposition or hydrolysis at or below neutral pH in the absence of a matrix metalloproteinase enzyme. A typical thiopeptolide substrate commonly utilized for assays is Ac-Pro-Leu-Gly-thioester-Leu-Leu-Gly-OEt. A 100 μL assay mixture will contain 50 mM of N-2-hydroxyethylpiperazine-N′-2-ethanesulfonic acid buffer (“HEPES,” pH 7.0), 10 mM CaCl2, 100 μM thiopeptolide substrate, and 1 mM 5,5′-dithio-bis-(2-nitro-benzoic acid) (DTNB). […] The change in absorbance at 405 nm is monitored on a Thermo Max microplate reader (molecular Devices, Menlo Park, Calif.) at room temperature (22° C.). The calculation of the amount of hydrolysis of the thiopeptolide substrate is based on E412=13600 M^−1 cm^−1 for the DTNB-derived product 3-carboxy-4-nitrothiophenoxide. Assays are carried out with and without matrix metalloproteinase inhibitor compounds, and the amount of hydrolysis is compared for a determination of inhibitory activity of the test compounds.
Test compounds were evaluated at various concentrations in order to determine their respective IC50 values, the micromolar concentration of compound required to cause a 50% inhibition of catalytic activity of the respective enzyme.
Some representative compounds of Formula I have been evaluated for their ability to inhibit MMP-13, MMP-1FL, MMP-3CD, MMP-7FL, MMP-8FL, MMP-9FL, MMP-12CD, MMP-14CD, and/or MMP-17CD, wherein FL means full-length enzyme and CD means a catalytic domain of the full-length enzyme. Test compounds can be evaluated at various concentrations in order to determine their respective IC50 values, the micromolar concentration of compound required to cause a 50% inhibition of the hydrolytic activity of the respective enzyme.
Certain compounds of Formula I have also been assayed with MMP-1 full-length, MMP-3 catalytic domain, MMP-7 full-length, MMP-8 full-length, MMP-9 full-length, MMP-12 catalytic domain, MMP-14 catalytic domain, and MMP-17 catalytic domain. […] In Biological Table 2, the compound example numbers for the Compound Examples are indicated in the column labelled “Ex. No.”

Take `COc1ccc(CNC(=O)c2cc3c(=O)n(Cc4ccc(C(=O)O)cc4)cnc3cn2)cc1` [Compound Example 1, 4-[6-(4-methoxy-benzylcarbamoyl)-4-oxo-4H-pyrido[3,4-d]pyrimidin-3-ylmethyl]-benzoic acid]: the IC50 is > 100 µM.

For orientation: IC50 means the concentration that inhibits the measured activity by half.
